The target in experiment [1] is HDAC2 (Homo sapiens, UniProt Q92769). The experiment in a line: In vitro enzymatic assay with purified HDACs. The experiment is classed as biochemical. The source says: (§1) To extend these observations in other cell settings, we next made use of a novel HDAC6 proteolysis targeting chimera (PROTAC) degrader, XY-07-35 ([19]). Treatment of cells with XY-07-35 leads to recruitment of the E3 ligase cereblon (CRBN) to HDAC6, ubiquitination, and subsequent proteasomal degradation of HDAC6 (Fig. 3A).
Sequence of HDAC2 (Q92769 whole entry, species assumed): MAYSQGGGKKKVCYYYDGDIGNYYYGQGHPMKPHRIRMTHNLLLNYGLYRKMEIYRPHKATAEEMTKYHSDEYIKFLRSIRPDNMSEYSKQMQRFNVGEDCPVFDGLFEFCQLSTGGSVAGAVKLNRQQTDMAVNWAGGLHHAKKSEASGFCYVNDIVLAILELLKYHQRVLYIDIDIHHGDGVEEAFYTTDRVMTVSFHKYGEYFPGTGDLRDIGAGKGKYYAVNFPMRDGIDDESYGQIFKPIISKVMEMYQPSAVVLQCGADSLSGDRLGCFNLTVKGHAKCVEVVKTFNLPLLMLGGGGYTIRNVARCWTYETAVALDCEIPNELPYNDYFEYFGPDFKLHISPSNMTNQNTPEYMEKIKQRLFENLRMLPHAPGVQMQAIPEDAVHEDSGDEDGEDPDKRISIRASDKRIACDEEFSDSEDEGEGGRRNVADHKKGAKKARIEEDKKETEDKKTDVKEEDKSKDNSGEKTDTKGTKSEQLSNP
(§2) Figure 3 Effect of […] mediated HDAC6 degradation on NLRP3 inflammasome activation in PBMCs.A, schematic of the mode of action of an HDAC6 degrader. The PROTAC engages both HDAC6 and the E3 ligase cereblon (CRBN), which then leads to ubiquitination and degradation of HDAC6. B, chemical structure of the HDAC6 degrader XY-07-35 and of the negative control XY-07-191 which no longer recruits CRBN. C, in vitro enzymatic assay of compound XY-07-35 on the activity of different HDACs. IC50 for each enzyme is shown. D, XY-07-35 mediated HDAC6 degradation in PBMCs. PBMCs (without or with LPS priming for 4 h) were treated with the indicated compounds and HDAC6 levels were detected by immunoblotting with an anti-HDAC6 antibody. Detection of actin was used as a control for loading. CGP, CGP084892 (Caspase-1 inhibitor); AFN700 is an inhibitor of the NF-kB pathway (IKK inhibitor). E, HDAC6 degradation impact on IL-1β release in PBMCs following MSU 200 μg/ml (5 h), nigericin 2 μM (2 h) or ATP 3 mM (0.5 h) treatment. Cells were first primed with 0.2 ng/ml LPS for 4 h at 37 °C, then treated with MSU, nigericin, and ATP as indicated. The graphs below show the results of three independent experiments using the inducers as indicated. NP3-948 is an inhibitor of the NLRP3 inflammasome. TEXT PRINTED IN THE PICTURE: (C) XY-07-035: Compound IC50 (μM): 1.04 (Target: HDAC1); Compound IC50 (μM): 2.47 (Target: HDAC2); Compound IC50 (μM): 1.44 (Target: HDAC3); Compound IC50 (μM): 5.75 (Target: HDAC5); Compound IC50 (μM): 0.0485 (Target: HDAC6); Compound IC50 (μM): 0.621 (Target: HDAC8) DOUBTS OF THE COPYIST ABOUT THIS PICTURE: XY-07-035, HDAC4, HDAC7 and HDAC9: the table prints only dashes (--), no value, so these rows are left out

The target in experiment [2] is HDAC5 (Homo sapiens, UniProt Q9UQL6). The experiment is described as follows: In vitro enzymatic assay with purified HDACs. The experiment is classed as biochemical.
Sequence of HDAC5 (Q9UQL6 whole entry, species assumed): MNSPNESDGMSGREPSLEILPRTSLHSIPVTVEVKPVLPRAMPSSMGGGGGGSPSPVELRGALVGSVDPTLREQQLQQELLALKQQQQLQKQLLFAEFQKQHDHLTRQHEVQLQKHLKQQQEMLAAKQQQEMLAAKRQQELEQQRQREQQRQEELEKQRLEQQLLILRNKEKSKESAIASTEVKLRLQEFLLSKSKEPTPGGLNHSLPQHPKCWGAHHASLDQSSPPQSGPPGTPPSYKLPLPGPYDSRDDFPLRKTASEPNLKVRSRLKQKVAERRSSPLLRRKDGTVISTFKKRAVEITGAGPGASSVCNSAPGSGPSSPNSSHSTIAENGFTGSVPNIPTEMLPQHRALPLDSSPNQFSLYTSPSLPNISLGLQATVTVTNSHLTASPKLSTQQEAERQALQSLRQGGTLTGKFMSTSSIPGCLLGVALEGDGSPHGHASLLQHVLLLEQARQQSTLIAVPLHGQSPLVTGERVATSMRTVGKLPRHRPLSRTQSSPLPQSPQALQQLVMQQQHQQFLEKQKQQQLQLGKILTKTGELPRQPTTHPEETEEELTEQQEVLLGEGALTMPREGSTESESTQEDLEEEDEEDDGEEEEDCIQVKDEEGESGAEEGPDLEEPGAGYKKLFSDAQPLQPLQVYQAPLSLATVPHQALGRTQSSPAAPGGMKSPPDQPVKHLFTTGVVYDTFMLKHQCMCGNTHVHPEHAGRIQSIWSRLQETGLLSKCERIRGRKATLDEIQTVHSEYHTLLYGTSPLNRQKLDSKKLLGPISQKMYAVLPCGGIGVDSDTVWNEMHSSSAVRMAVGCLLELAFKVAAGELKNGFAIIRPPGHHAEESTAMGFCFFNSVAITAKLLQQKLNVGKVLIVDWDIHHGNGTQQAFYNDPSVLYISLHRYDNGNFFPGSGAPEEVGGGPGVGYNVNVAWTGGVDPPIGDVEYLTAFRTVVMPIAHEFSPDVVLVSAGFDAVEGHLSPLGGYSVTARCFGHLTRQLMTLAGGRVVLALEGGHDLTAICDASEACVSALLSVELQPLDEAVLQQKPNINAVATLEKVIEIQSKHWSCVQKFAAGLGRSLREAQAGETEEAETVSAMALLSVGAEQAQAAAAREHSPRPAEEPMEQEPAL
Excerpt: as §1, §2

Experiment [3] has as its target T1, HDAC6 (Homo sapiens, UniProt Q9UBN7).
T1 sequence (Q9UBN7 1-1215): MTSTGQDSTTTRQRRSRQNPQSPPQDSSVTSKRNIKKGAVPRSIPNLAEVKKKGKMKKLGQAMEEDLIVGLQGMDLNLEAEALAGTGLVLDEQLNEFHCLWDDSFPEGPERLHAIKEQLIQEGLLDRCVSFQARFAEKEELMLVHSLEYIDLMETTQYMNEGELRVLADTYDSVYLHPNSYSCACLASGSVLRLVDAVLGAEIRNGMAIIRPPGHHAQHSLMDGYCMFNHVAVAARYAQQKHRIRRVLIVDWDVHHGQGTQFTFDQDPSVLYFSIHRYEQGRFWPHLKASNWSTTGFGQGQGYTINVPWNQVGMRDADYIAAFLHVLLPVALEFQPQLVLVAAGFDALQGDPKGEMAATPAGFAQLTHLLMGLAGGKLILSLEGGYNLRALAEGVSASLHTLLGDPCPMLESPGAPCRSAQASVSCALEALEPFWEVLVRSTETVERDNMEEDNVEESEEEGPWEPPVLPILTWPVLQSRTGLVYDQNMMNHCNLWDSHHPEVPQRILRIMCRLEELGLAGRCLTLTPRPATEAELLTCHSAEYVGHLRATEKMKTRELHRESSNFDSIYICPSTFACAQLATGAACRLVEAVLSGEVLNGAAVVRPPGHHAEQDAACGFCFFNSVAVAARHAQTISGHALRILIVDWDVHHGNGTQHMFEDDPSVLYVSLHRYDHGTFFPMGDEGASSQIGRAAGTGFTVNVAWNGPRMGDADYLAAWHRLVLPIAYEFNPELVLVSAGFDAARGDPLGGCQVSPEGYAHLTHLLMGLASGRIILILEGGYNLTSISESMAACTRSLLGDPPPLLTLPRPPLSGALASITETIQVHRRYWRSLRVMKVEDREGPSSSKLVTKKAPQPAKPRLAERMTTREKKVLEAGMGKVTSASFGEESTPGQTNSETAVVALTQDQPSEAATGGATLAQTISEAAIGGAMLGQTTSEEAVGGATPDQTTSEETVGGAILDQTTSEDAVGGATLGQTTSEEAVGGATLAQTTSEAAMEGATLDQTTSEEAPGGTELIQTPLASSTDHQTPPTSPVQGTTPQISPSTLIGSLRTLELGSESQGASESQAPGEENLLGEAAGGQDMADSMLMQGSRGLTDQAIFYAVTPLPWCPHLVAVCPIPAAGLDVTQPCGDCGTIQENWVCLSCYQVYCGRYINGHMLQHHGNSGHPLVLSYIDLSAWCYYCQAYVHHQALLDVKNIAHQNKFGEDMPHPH
The experiment is described as follows: HDAC6 degradation in pyrin-expressing U937 cells (immunoblot). Format: cell-based. To be noted: 0.1 μM to 10 μM. On the set-up: endogenous in cells. In general terms: A western blot detects proteins with antibodies after separation by electrophoresis.
Procedure: Cells were treated with the indicated compounds and HDAC6 was detected by immunoblotting with an anti-HDAC6 antibody. Detection of actin was used as a control for protein loading. […] The membrane was blocked with 5% milk-TBS, and then incubated with primary antibodies overnight at 4 °C. The signal was developed with HRP-conjugated secondary antibodies and Amersham ECL Western Blotting Detection Reagent (Cytiva#RPN2106).

For experiment [4], the target named is T1, HDAC6. The experiment in a line: HDAC6 degradation in THP-1 cells (immunoblot). The experiment is classed as cell-based. On the set-up: endogenous in cells; host or cells: PBMCs (with or without LPS priming). To be noted: non-differentiated and PMA-differentiated THP-1 cells.
In experiment [5] the target is T1, HDAC6. The experiment in a line: HDAC6 degradation in PBMCs (immunoblot). Format: cell-based. More on the design: endogenous in cells; host or cells: PBMCs (with or without LPS priming). As to conditions: XY-07-35 at 1 μM.
Excerpt: as §2, with “The graphs below show the results of three independent experiments using the inducers as indicated. NP3-948 is an inhibitor of the NLRP3 inflammasome. TEXT PRINTED IN THE PICTURE: (C) XY-07-035: Compound IC50 (μM): 1.04 (Target: HDAC1); Compound IC50 (μM): 2.47 (Target: HDAC2); Compound IC50 (μM): 1.44 (Target: HDAC3); Compound IC50 (μM): 5.75 (Target: HDAC5); Compound IC50 (μM): 0.0485 (Target: HDAC6); Compound IC50 (μM): 0.621 (Target: HDAC8) DOUBTS OF THE COPYIST ABOUT THIS PICTURE: XY-07-035, HDAC4, HDAC7 and HDAC9: the table prints only dashes (--), no value, so these rows are left out” left out
Treated BMDM cells were lysed with RIPA buffer (supplied with cOmplete Protease Inhibitor Cocktail, Merck#11697498001), and protein concentration was determined by Bradford assay. […]

Regarding `CN(C(=O)CCCNc1cccc2c1C(=O)N(C1CCC(=O)NC1=O)C2=O)c1ccc(NC(=O)CCCCCCC(=O)NO)cc1` (stereo not drawn) [XY-07-35], the concentration for half-maximal inhibition (IC50) in experiment [1] stood at 2.47 µM; in experiment [2], 5.75 µM. Also, the HDAC6 degradation entry in experiment [3] is “efficiently degraded”; in experiment [4], “did not lead to HDAC6 degradation”. Further, in experiment [5], the “HDAC6 degradation / effect on HDAC6 levels” value is given as “efficiently degraded”.

With `CN1C(=O)CCC(N2C(=O)c3cccc(NCCCC(=O)N(C)c4ccc(NC(=O)CCCCCCC(=O)NO)cc4)c3C2=O)C1=O` (stereo not drawn) [XY-07-191], in experiment [5], the “HDAC6 degradation / effect on HDAC6 levels” value is on record as “only minimal or no effect on HDAC6 levels”.

The term IC50 denotes the concentration at which inhibition is half-maximal. Read a high IC50 as a need for much substance.

The values above are taken from PMC10850954, “HDAC6/aggresome processing pathway importance for inflammasome formation is context-dependent” (The Journal of Biological Chemistry, 2024).
